Laboratory results published in patent US9034863B2, “Compositions and methods for inhibiting entry of a hepatic virus” (The Board of Trustees of the University of Illinois, priority 2008, dated 2015).
Entries after “also recorded” stand apart in the source; their conditions may differ.

How the values were obtained:
HCVcc JFH-1 = assay: Acute HCVcc infection of Huh7 cells, HCV RNA by RT-qPCR; assay type: cell-based, Hepatitis C virus (HCV)
Protocol: For experiments in growing cells, Huh7 cells were seeded 24 hours prior to use at 4×10^3 cells in each well of a 96-well plate (BD Biosciences, San Jose, Calif.). For experiments in non-growing cells, Huh7 cells were seeded in 96-well BIOCOAT culture plates (BD Biosciences) at a density of 8×10^3 cells/well in cDMEM. Upon reaching 90% confluence, media was replaced with 200 μl cDMEM supplemented with 1% (v/v) DMSO (Sigma), and cells were cultured for an additional 20 days, replacing medium every 2 days (Sainz, Jr. & Chisari (2006) J. Virol. 80:10253-7; Choi, et al. (2009) Xenobiotica 39:205-17). Cells were infected with HCVcc JFH-1 at an MOI of 1.0 or 0.1 FFU/cell for 12 hours. Cells were mock-treated or treated with increasing concentrations of ezetimibe 6 hours prior to infection (PRE), during the time of infection for 12 hours (CO), or immediately following infection for 60 hours (POST). For RT-qPCR analysis, total cellular RNA was extracted in 1× Nucleic Acid Purification Lysis Solution (Applied Biosystems, Foster City, Calif.) from triplicate wells at indicated times post infection. For HCV E2-positive foci assay analysis, medium was removed and cells were fixed with 4% paraformaldehyde (w/v) (Sigma) 72 hours post-infection and immunohistochemical staining for HCV E2 was performed as described herein.
Total cellular RNA was purified using an ABI PRISM™ 6100 Nucleic Acid PrepStation (Applied Biosystems), as per the manufacturer's instructions. One μg of purified RNA was used for cDNA synthesis using the TAQMAN reverse transcription reagents (Applied Biosystems), followed by SYBR green RT-qPCR using an Applied Biosystems 7300 real-time thermocycler (Applied Biosystems). […] HCV JFH-1 and human GAPDH RNA transcript levels were determined relative to a standard curve derived from serial dilutions of plasmid containing the JFH-1 HCV cDNA or the human GAPDH coding sequence, respectively. […]
Likewise dose-dependent and time-of-addition-dependent inhibition of HCV infection was observed when HCV RNA levels were quantified by RT-qPCR 24, 48 and 72 hours p.i.

Huh7 cells = assay: Cell proliferation assay (cellular ATP, […] Plus); assay type: cell-based, human; conditions: increasing doses
Source text: The […] Plus Cell Proliferation assay kit (Lonza, Walkersville, Md.), which incorporates bioluminescent detection of cellular ATP as a measure of cell viability and proliferation, was used according to the manufacturer's instructions. Briefly, mock-treated and drug-treated cultures were lysed in Cell Lysis reagent for […]. One hundred μl of culture medium was transferred to white 96-well plates (BD Biosciences) containing ATP detection reagent and luminescence, expressed as relative light units (RLU), was measured (Fluostar OPTIMA). To assess drug-induced cellular toxicity, a bioluminescence-based assay (The TOXILIGHT BioAssay Kit, Lonza) that measures adenylate kinase (AK) released from damaged cells was used as per the manufacturer's instructions. […] One hundred μl of AK detection reagent was then added to each well, and luminescence (RLU) was measured (Fluostar OPTIMA).
To ensure that the inhibition observed was not due to ezetimibe-induced changes in cell proliferation or cytotoxicity, cellular ATP was measured as a read-out of Huh7 cell viability and proliferation and cellular toxicity by adenylate kinase release following treatment with increasing doses of ezetimibe. […] Furthermore, to test the specificity of the observed HCV inhibition, the effect of ezetimibe on entry of another flavivirus, Dengue virus (DNV), was assessed.

[1] = tested on: HCV genotype 1b subgenomic replicon; assay: HCV sg1b replicon RNA replication in Huh7 cells, RT-qPCR; assay type: cell-based, Hepatitis C virus (HCV); conditions: increasing doses, 72 hours

Structure (SMILES): O=C1[C@H](CC[C@H](O)c2ccc(F)cc2)[C@@H](c2ccc(O)cc2)N1c1ccc(F)cc1 [ezetimibe, 1-(4-fluorophenyl)-(3R)-[3-(4-fluorophenyl)-(3S)-hydroxypropyl]-(45)-(4-hydroxyphenyl)-2-azetidinone]
- inhibition of HCV infection (HCV RNA levels) (HCVcc JFH-1; addition post-infection, 72 hours p.i.): ineffective
- inhibition of HCV infection (HCV RNA levels) (HCVcc JFH-1; co-treatment): potently inhibited HCV infection
- protection of cells from subsequent infection, duration (HCVcc JFH-1; pre-treatment with 25 μM for 6 hours before infection): at least 48 hours
- cell proliferation (cellular ATP) (Huh7 cells): did not inhibit cell proliferation
- sg1b HCV RNA steady-state levels [1]: did not inhibit HCV subgenomic RNA replication; also recorded: no significant reduction
